Consider 67 compounds from ChEMBL document CHEMBL2094260, “Malaria Box Tuberculosis Screening Data”.

In assay [1] the test system is Mycobacterium tuberculosis. The experiment in a line: MMV: Screen against Mtb, single point, replicating, at 25uM. The assay is classed as functional.
For assay [2], the system named is Mycobacterium tuberculosis. The experiment in a line: MMV: Screen against Mtb, single point, non replicating, at 25uM. The assay is classed as functional.

A word on the inhibition: it is the relative decrease from the control value, in per cent. With `COc1ccc(CN2CCCC(C(=O)c3ccc(C(F)(F)F)cc3)C2)c(O)c1` (centres undefined), the inhibition at 25 µM in assay [1] amounted to 35.3%; in assay [2] it was 1.85%.

As to `CCOc1ccccc1CN1CCc2nc3cc(C(C)(C)C)nn3c(O)c2C1`, the inhibition at 25 µM in assay [1] was found to be 13.9%; in assay [2], 1.04%.

Turning to `Cc1cc(N2CCN(C3CCCC3)CC2)n2c(nc3ccccc32)c1C#N`, the figures for the inhibition at 25 µM in assay [1] and in assay [2] were 7.81% and 11.5%, respectively.

As for `CC(C)(C)c1ccc2c(c1)CN(Cc1ccc(Cl)cc1)CO2`, the values for the inhibition at 25 µM in assay [1] and in assay [2] were 48.4% and 41.2%, respectively.

As for `Cc1cc(NC(=O)C2c3ccccc3C(=O)N(CC(C)C)C2c2cccs2)no1` (centres undefined), the inhibition at 25 µM came to 12.2% in assay [1] and 13.1% in assay [2].

For the compound `CN(C)c1ccc(N=Cc2ccc(N3CCOCC3)cc2)cc1`, the inhibition at 25 µM was 38.8% in assay [1] and -1.53% in assay [2].

Take `N=c1c2ccccc2nnn1-c1cccc(C(F)(F)F)c1`: the inhibition at 25 µM in assay [1] was 7.29%; in assay [2] it was -4.19%.

Regarding `O=C(Nc1ccc(C23CC4CC(CC(c5ccccc5)(C4)C2)C3)cc1)c1cccs1`, the values for the inhibition at 25 µM in assay [1] and in assay [2] were 9.48% and -0.283%, respectively.

As for `CC(C)CNC(=O)c1c(N)n(CCc2ccccc2F)c2nc3ccccc3nc12`, the values for the inhibition at 25 µM in assay [1] and in assay [2] were 14.8% and 2.78%, respectively.

As to `Oc1c2c(nc3cc(-c4ccccc4)nn13)CCCC2`, the inhibition at 25 µM in assay [1] worked out at 19.8%; in assay [2], 10.3%.

`COc1ccc(-c2cc3c(nn2)-c2ccccc2C3=O)cc1`: the inhibition at 25 µM came out at 39% in assay [1] and 26.7% in assay [2].

As to `CCN(Cc1ccccc1)C1CCN(Cc2cc(Br)ccc2O)CC1`, the results for the inhibition at 25 µM in assay [1] and in assay [2] were 16.8% and 12.7%, respectively.

As to `O=C(CSc1ccc2nnc(-c3cccc(F)c3)n2n1)Nc1ccc2c(c1)OCO2`, the inhibition at 25 µM in assay [1] is 5.98%; in assay [2] it was 19.2%.

In the case of `COc1cc(C(=O)Nc2ccc(-c3nc4ccccc4[nH]3)cc2)cc(OC)c1OC`, the inhibition at 25 µM came out at 27% in assay [1] and 19.1% in assay [2].

For the compound `O=C(NCC(c1ccsc1)N1CCCCCC1)c1ccc(C(F)(F)F)cc1` (centres undefined), the inhibition at 25 µM in assay [1] was 8.41%; in assay [2], 10.5%.

In the case of `COc1ccc(CCN2C(=O)c3[nH]nc(-c4cc(Cl)c(C)cc4O)c3C2c2ccccc2F)cc1` (centres undefined), the inhibition at 25 µM in assay [1] is -0.705%; in assay [2] it was 16.2%.

Turning to `CC(=O)Nc1nnc(SCc2c(C)cc(C(C)(C)C)cc2C)s1`, the figures for the inhibition at 25 µM in assay [1] and in assay [2] were 3.55% and 19.7%, respectively.

Turning to `CCN(CC)CCNc1ncnc2c1[nH]c1ccc(Br)cc12`, the inhibition at 25 µM in assay [1] was determined as 20.6%; in assay [2] it was 13.4%.

Consider `COc1nc(Nc2ccc(C(C)C)cc2)nc(OC)n1`, for which the inhibition at 25 µM is 14% in assay [1] and 8.02% in assay [2].

On to `CCN1CCN(Cc2ccc(NC(=O)c3cc4ccc5cccnc5c4[nH]3)cc2)CC1`, for which the inhibition at 25 µM in assay [1] came out at 18.3%; in assay [2], 3.13%.

Consider `Oc1ccccc1CN1CCN(C(c2ccccc2)c2ccccc2)CC1`, for which the inhibition at 25 µM was 33.3% in assay [1] and 28.8% in assay [2].

Regarding `CCCCc1c(CCC)c(=N)c2ccccc2n1C`, the values for the inhibition at 25 µM in assay [1] and in assay [2] were 6.04% and -5.96%, respectively.

Regarding `Cc1cc(C)cc(Nc2cc(C)nc3nc(C(F)(F)F)nn23)c1`, the values for the inhibition at 25 µM in assay [1] and in assay [2] were 7.5% and 4.53%, respectively.

For `COc1ccc(C(=O)C2CC2c2ccc(Cl)cc2)cc1` (centres undefined), the inhibition at 25 µM in assay [1] is 17.5%; in assay [2], -5.07%.

Consider `COc1ccc(CCN2CCC(CN(C)Cc3cnn(-c4ccccc4)c3)CC2)cc1`, for which the figures for the inhibition at 25 µM in assay [1] and in assay [2] were 21.3% and 15%, respectively.

Turning to `CC(C)=CCN1CCC(C(=O)Nc2ccc(-c3nc4ccccc4[nH]3)cc2)CC1`, the inhibition at 25 µM in assay [1] came out at 12.5%; in assay [2], 17.3%.

On to `COCCNC(=O)c1ccc(OC2CCN(Cc3ccc(F)c(F)c3)CC2)c(Cl)c1`, for which the inhibition at 25 µM in assay [1] came out at 12.7%; in assay [2] it was 14.1%.

Regarding `Cc1c(C)n(CC(O)CNC2CCCCC2C)c2ccccc12` (centres undefined), the inhibition at 25 µM in assay [1] is 24.7%; in assay [2] it was 7.84%.

In the case of `COc1ccccc1N1CCN(C(CNS(=O)(=O)c2ccc(Cl)cc2)c2cccnc2)CC1` (centres undefined), the inhibition at 25 µM in assay [1] is 4.01%; in assay [2] it was 15.2%.

As to `CCCCCCc1cc2cc(-c3csc(C=Cc4ccccc4)n3)c(=O)oc2cc1O`, the inhibition at 25 µM in assay [1] is -0.392%; in assay [2] it was 9.83%.

As to `CCn1c(SCC(=O)Nc2cc(C(F)(F)F)ccc2Cl)nc2ccccc2c1=O`, the inhibition at 25 µM in assay [1] amounted to 2.95%; in assay [2] it was 16%.

On to `CCOC(=O)C1CCN(C(=O)CN2C(=O)c3ccccc3C2c2c[nH]c3ccccc23)CC1` (centres undefined), for which the inhibition at 25 µM came out at 4.16% in assay [1] and 8.89% in assay [2].

In the case of `CCOc1ccccc1CNC(=O)C1c2ccccc2C(=O)N(CC(C)C)C1c1cccs1` (centres undefined), the inhibition at 25 µM amounted to 43.5% in assay [1] and 10.8% in assay [2].

Take `O=C(NCc1ccco1)C1CCN(S(=O)(=O)c2ccc(Cl)cc2)CC1`: the inhibition at 25 µM in assay [1] is 46.4%; in assay [2], 12.4%.

Consider `CCOc1ccc(CCNC(=O)c2cccs2)cc1OCC`, for which the inhibition at 25 µM in assay [1] was 30%; in assay [2] it was 15%.

As to `CCCc1c(C)nc2ccccc2c1O`, the figures for the inhibition at 25 µM in assay [1] and in assay [2] were 15.9% and 9.94%, respectively.

Consider `CCCCCCc1cc2cc(-c3nc4ccccc4[nH]3)c(=Nc3ccccc3C)oc2cc1O`, for which the inhibition at 25 µM was 4.31% in assay [1] and 28.5% in assay [2].

On to `COc1ccccc1CNC(=O)CCn1c(=O)[nH]c2ccsc2c1=O`, for which the figures for the inhibition at 25 µM in assay [1] and in assay [2] were 9.93% and 0.338%, respectively.

`Oc1ccc(Br)cc1CN1CCN(Cc2cccc(F)c2)CC1`: the figures for the inhibition at 25 µM in assay [1] and in assay [2] were 28.5% and -1.58%, respectively.

Take `O=C(NC1CCCC1)c1ccc(N2CCC(NCc3cccc(C(F)(F)F)c3)CC2)cc1`: the inhibition at 25 µM amounted to 22.1% in assay [1] and 3.83% in assay [2].

As to `COc1ccc(NC(=O)C2c3ccccc3C(=O)N(CC(C)C)C2c2cccs2)cc1` (centres undefined), the inhibition at 25 µM in assay [1] stood at 4.77%; in assay [2] it was 3.3%.

Turning to `COc1ccc(C(=O)Nc2ccc(Cl)cc2C(=O)Nc2ccncc2)cc1`, the inhibition at 25 µM in assay [1] stood at 4.46%; in assay [2], 30.9%.

As for `CC1=C(CC(=O)c2cccc([N+](=O)[O-])c2)C(=O)c2ccccc2C1=O`, the inhibition at 25 µM in assay [1] is 40.5%; in assay [2] it was 20.1%.

In the case of `CCCN(CCC)CCCNC(=O)c1cc2c(-c3ccc(OC)c(OC)c3)nn(C)c2s1`, the results for the inhibition at 25 µM in assay [1] and in assay [2] were 5.83% and -0.011%, respectively.

For `O=C(Nc1cccc(-c2nc3ccccc3[nH]2)c1)c1cccc(NC(=O)c2ccco2)c1`, the inhibition at 25 µM amounted to 21.2% in assay [1] and 46.1% in assay [2].

For `CCOC(=O)c1c[nH]c2c(CC)cccc2c1=O`, the inhibition at 25 µM in assay [1] was found to be 4.62%; in assay [2] it was 11.1%.

Turning to `CCCc1c(C)nc2ccc(Br)cc2c1O`, the inhibition at 25 µM amounted to 13.7% in assay [1] and 12.5% in assay [2].

`COc1ccc(C2Sc3ccccc3N=C3C2=C(O)c2ccccc23)cc1` (centres undefined): the values for the inhibition at 25 µM in assay [1] and in assay [2] were 8.41% and -1.58%, respectively.

As to `CCN(CC)S(=O)(=O)c1ccc(-c2csc(Nc3ccc(C)c(C)c3)n2)cc1`, the inhibition at 25 µM in assay [1] worked out at 6.89%; in assay [2], 14.1%.

On to `COc1ccc(-c2nc(NC(=O)CS(=O)(=O)c3ccc(F)cc3)sc2C)cc1`, for which the inhibition at 25 µM is 14.9% in assay [1] and 21.5% in assay [2].

Regarding `COc1ccc(OC)c(C2C3=C(CC(C)(C)CC3=O)N(c3ccc(Cl)c(Cl)c3)C3=C2C(=O)CC(C)(C)C3)c1`, the inhibition at 25 µM in assay [1] is 5.56%; in assay [2] it was 7.7%.

In the case of `CC(Oc1ccc(NC(=O)c2cccs2)cc1)C(=O)c1ccc(Cl)cc1` (centres undefined), the results for the inhibition at 25 µM in assay [1] and in assay [2] were 2.74% and -0.638%, respectively.

For `Cc1ccc(-c2cc3c(SCC(=O)Nc4cc(C(F)(F)F)ccc4Cl)nccn3n2)cc1`, the inhibition at 25 µM in assay [1] turned out to be 3.25%; in assay [2], 8.19%.

`COc1ccccc1CNC(=O)CCn1c(=O)[nH]c2ccccc2c1=O`: the inhibition at 25 µM in assay [1] was 6.74%; in assay [2] it was 11.2%.

As for `CCOC(=O)c1cnc2c(C)cccc2c1Nc1ccc(C(C)=O)cc1`, the inhibition at 25 µM in assay [1] came out at 0.392%; in assay [2], 8.24%.

For the compound `c1ccc2cc3c(Nc4ccc(N5CCOCC5)cc4)ccnc3cc2c1`, the inhibition at 25 µM in assay [1] was 19.5%; in assay [2] it was 0.164%.

As to `CCN1CCCC1CNc1[nH]cnc2c3cc(Cl)ccc3nc1-2` (centres undefined), the results for the inhibition at 25 µM in assay [1] and in assay [2] were 0.0616% and 4.53%, respectively.

As for `CNCCCNc1ccnc2cc(Cl)ccc12`, the inhibition at 25 µM in assay [1] was 8.11%; in assay [2], 5.05%.

For `CCCCc1c(C)nc2c(OC)cccc2c1O`, the inhibition at 25 µM worked out at 26.3% in assay [1] and 6.62% in assay [2].

`CCOc1cc2c(cc1OCC)C(c1cc(Cl)c(O)c(OCC)c1)NCC2` (centres undefined): the inhibition at 25 µM in assay [1] was -12.2%; in assay [2] it was -14%.

With `O=C(NC1CCN(Cc2ccccc2)CC1)c1cc(C(=O)NC2CCN(Cc3ccccc3)CC2)cc(C(=O)NC2CCN(Cc3ccccc3)CC2)c1`, the inhibition at 25 µM stood at 7.92% in assay [1] and 3.44% in assay [2].

On to `Cc1ccc(OCCCCCCNCCO)c(C)c1`, for which the inhibition at 25 µM in assay [1] amounted to 17.5%; in assay [2], 13%.

`COc1ccc2nc(N)nc(C)c2c1`: the figures for the inhibition at 25 µM in assay [1] and in assay [2] were 5.53% and -10.5%, respectively.

Take `CCOc1ccc(C2N(C)c3ccccc3N2C)cc1`: the inhibition at 25 µM in assay [1] is 8.11%; in assay [2], 11.7%.

On to `COc1cccc(Nc2nc(N)c3ccccc3n2)c1`, for which the inhibition at 25 µM was 6.04% in assay [1] and 11.4% in assay [2].

On to `COc1ccc2nc(C)cc(Nc3ccc(Cl)cc3)c2c1`, for which the inhibition at 25 µM in assay [1] worked out at 41.2%; in assay [2] it was 7.32%.

`CCN(CC)CCNc1ccnc2cc(Cl)ccc12`: the values for the inhibition at 25 µM in assay [1] and in assay [2] were 4.01% and 18.3%, respectively.
